Here are results for seven molecules from article PMC5618334, “Hydrocarbon constrained peptides – understanding preorganisation and binding affinity” (Chemical Science, 2016).

Where a SMILES comes first, the peptide text is derived from it. [ ]: non-standard residue; d: D form. The star is where a group is joined. FITC = O=C1OC2(c3ccc(O)cc3Oc3cc(O)ccc32)c2ccc(NC(=S)*)cc21; Nle = CCCC[C@H](N)C(=O)O; Ahx = NCCCCCC(=O)O

Experiment [1] concerns the target T1, Bcl-xL (Homo sapiens, UniProt Q07817, DEL26-81).
T1 construct: pET28a His-SUMO Bcl-xL (1-198, missing 26-81); made in house; host or cells: E. coli Rosetta 2
Kind of experiment: Fluorescence anisotropy direct binding assay with Bcl-xL. The note with it: for EC50: Bcl-xL titrated into FITC-labelled peptide (25-100 nM), 50 mM tris, 140 mM NaCl, pH 7.50, logistic fit. The protocol:
(§1) Direct titration experiments were also performed for FITC labelled BID peptides (Fig. 5). […]
(§2) constructs were over-expressed in the E. coli strain Rosetta 2. Cells were resuspended in 50mM TRIS pH 8.0, 500mM NaCl, 15mM Imidazole and lysed by sonication. The clarified lysate was applied to a 5ml HisTrap column equilibrated with 50mM TRIS pH 8.0, 500mM NaCl, 15mM Imidazole. The HisTrap was then washed with 10 CV of 50mM TRIS pH 8.0, 500mM NaCl, 15mM Imidazole followed by 10 CV 50mM TRIS pH 8.0, 500mM NaCl, 25mM Imidazole. The fusion proteins were eluted in 50mM TRIS pH 8.0, 500mM NaCl, 300mM Imidazole. TheHis-SUMO tag was removed in overnight in dialysis into 50mM TRIS pH 8.0, 250mM NaCl in the presence of Smt3 protease, Ulp1, overnight at 4°C. Uncleaved material and His-SUMO were removed by reapplication of the sample to a HisTrap in 50mM TRIS pH 8.0, 250mM NaCl and the flow through containing Mcl- […]
(§3) The proteins were then filtered before further purification on a Superdex 75 (GE […]
(§4) proteins were concentrated and stored at -80°C.
(§5) The assays were performed as detailed in 10, 11.
(§6) The buffers used for fluorescence anisotropy were either phosphate buffer (40 mM sodium phosphate, 200 mM sodium chloride, 0.02 mg ml-1 bovine serum albumin, pH 7.50) or Tris buffer (50 mM Tris, 140 mM sodium chloride, pH 7.50). Phosphate buffer was used for all competition assays […]
(§7) Assays were run in 96 or 384 well Optiplates and were scanned using a Perkin Elmer EnVisionTM 2103 MultiLabel plate reader. Fluorescein labelled peptides used an excitation and emission wavelength of 480 (30) nm and 535 (40) nm respectively (dichroic mirror 505 nm) whilst BODIPY labelled peptides used an excitation and emission wavelength of 531 (25) nm and 595 (60) nm respectively (dichroic mirror 555 nm), […]
(§8) Plates were read after 1 h […]
(§9) respectively. Plates were read after 1 h.
(§10) For all variants of the labelled BID peptides (FITC-BID-WT,FITC-BID-MM, FITC-BID-DM and FITC-BID-Aib), the direct binding assays were performed in Tris Buffer in 384 well plates. In protein titrations, the protein concentration started from between 1-10 µM and was diluted over 24 points in a 3/4 dilution regime, with the concentration of the labelled peptide fixed at 25-100 nM. In the peptide titrations, the concentration of the labelled peptides started from 5 µM and were diluted in a 2/3 regime over 24 points, with the concentration of the protein fixed at 50 nM. Plates were read after 2 hours of incubation, and read again after 4 and 18 hours to ensure complete equilibration.
(§11) Processing of fluorescence anisotropy data
(§12) Fluorescence anisotropy data was processed using Microsoft Excel to calculate intensity, anisotropy […]
(§13) b (λ(rmax − r) + r − rmin) r = anisotropy, I = total intensity, P = perpendicular intensity, S = parallel intensity, Lb = fraction ligand bound, λ = Ibound/Iunbound , G = 1= instrumental factor. […]
(§14) the calculation of IC50 and EC50) or to the Kd model for the extraction of Kd values:
(§15) Where for the logisitic model; y = r = anisotropy, xo = mid-point of the curve between the rmax and rmin […]
(§16) For the Kd model; y = Lb*[FL], K = Kd, [FL] = Concentration of fluorescent ligand.
For orientation: Polarisation of emitted light reports the rotation of a fluorescent probe.

Experiment [2] addresses T2, Mcl-1 (Homo sapiens, UniProt Q07820).
T2 construct: His-SUMO (N, cleaved yes); made in house; host or cells: E. coli Rosetta 2
Description: Fluorescence anisotropy direct binding assay with Mcl-1. The protocol:
as §1, §2, §3, §4, §5, §6, §7, §8, §9, §10, §11, §12, §13, §14, §15, §16

Experiment [3] addresses T3, Bcl-xL/BODIPY-BAK (Homo sapiens, UniProt Q07817, DEL26-81).
T3 construct: pET28a His-SUMO Bcl-xL (1-198, missing 26-81); His-SUMO (N, cleaved yes); made in house; host or cells: E. coli Rosetta 2
Description: Fluorescence anisotropy competition assay, inhibition of Bcl-xL/BODIPY-BAK interaction. The class given is binding. The protocol: (§17) To profile the binding behaviour of the constrained peptides we tested them in both competition displacement assays and direct binding assays. […] Of particular interest was the potential for the introduction of a constraint to have differential effects on protein specificity/selectivity. […] We next tested the constrained peptides in inhibition assays (Fig. 3a and b and Table 2). […]
as §2, §3, §4, §5, §6, §7, §8
(§18) respectively. Plates were read after 1 h. […]
as §11, §12, §13, §14, §15, §16

Experiment [4] addresses T4, Mcl-1/FITC-NOXA-B (Homo sapiens, UniProt Q07820).
T4 construct: His-SUMO (N, cleaved yes); made in house; host or cells: E. coli Rosetta 2
Description: Fluorescence anisotropy competition assay, inhibition of Mcl-1/FITC-NOXA-B interaction. The experiment is classed as binding. The note with it: Table S1, unconstrained BH3 peptides; FA competition; Mcl-1 150 nM, FITC-NOXA-B 50 nM; phosphate buffer pH 7.50; read after 1 h. The method, then:
as §17, §2, §3, §4, §5, §6, §7, §8, §18, §11, §12, §13, §14, §15, §16

T1 sequence (Q07817 with tags, fused parts or gaps DEL26-81): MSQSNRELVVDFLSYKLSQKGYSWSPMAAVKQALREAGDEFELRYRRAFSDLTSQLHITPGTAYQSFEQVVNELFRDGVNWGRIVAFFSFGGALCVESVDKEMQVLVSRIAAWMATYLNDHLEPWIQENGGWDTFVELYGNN
T3 sequence (Q07817 with tags, fused parts or gaps DEL26-81): as above
T2 sequence (Q07820 172-327): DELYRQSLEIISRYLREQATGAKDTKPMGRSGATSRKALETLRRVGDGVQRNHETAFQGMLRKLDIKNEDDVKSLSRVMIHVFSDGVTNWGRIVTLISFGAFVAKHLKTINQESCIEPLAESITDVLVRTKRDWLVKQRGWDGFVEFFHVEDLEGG
T4 sequence (Q07820 172-327): as above

Usually Kd stands for a measure of binding affinity in units of concentration. The EC50 is the concentration at which the effect is half-maximal. Low readings indicate greater potency, high ones weaker potency. For the molecule `CCCC[C@H](NC(=O)[C@H](CO)NC(=O)[C@H](CC(=O)O)NC(=O)CNC(=O)[C@@H](NC(=O)[C@H](CCC(N)=O)NC(=O)[C@H](C)NC(=O)[C@H](CC(C)C)NC(=O)[C@H](Cc1c[nH]cn1)NC(=O)[C@H](CCCNC(=N)N)NC(=O)[C@H](C)NC(=O)[C@@H](NC(=O)[C@H](CC(N)=O)NC(=O)[C@H](CCCNC(=N)N)NC(=O)[C@@H](NC(=O)[C@@H](NC(=O)[C@H](CC(=O)O)NC(=O)[C@H](CCC(=O)O)NC(=O)CCCCCNC(=S)Nc1ccc2c(c1)C(=O)OC21c2ccc(O)cc2Oc2cc(O)ccc21)[C@@H](C)CC)[C@@H](C)CC)[C@@H](C)CC)C(C)C)C(=O)N[C@@H](CC(=O)O)C(=O)N[C@@H](CCCNC(=N)N)C(=O)N[C@@H](CO)C(=O)N[C@H](C(=O)N[C@@H](Cc1c[nH]c2ccccc12)C(N)=O)[C@@H](C)CC` [FITC-BID-WT] ({FITC-Ahx}-EDIIRNIARHLAQVGDS[Nle]DRSIW-NH2), the Kd in experiment [1] was determined as 21 ± 6.6 nM; in experiment [2], 50 ± 20 nM. Moreover, the figures for the 50% effective concentration (EC50) in experiment [1] (FA direct binding) and in experiment [2] were 79 ± 6 nM and 98 ± 8.9 nM, respectively.

For the molecule `CCCC[C@H](NC(=O)[C@]1(C)CCCC=CCCC[C@](C)(NC(=O)[C@H](C)NC(=O)[C@H](CC(C)C)NC(=O)[C@H](Cc2c[nH]cn2)NC(=O)[C@H](CCCNC(=N)N)NC(=O)[C@H](C)NC(=O)[C@@H](NC(=O)[C@H](CC(N)=O)NC(=O)[C@H](CCCNC(=N)N)NC(=O)[C@@H](NC(=O)[C@@H](NC(=O)[C@H](CC(=O)O)NC(=O)[C@H](CCC(=O)O)NC(=O)CCNC(=S)Nc2ccc3c(c2)C(=O)OC32c3ccc(O)cc3Oc3cc(O)ccc32)[C@@H](C)CC)[C@@H](C)CC)[C@@H](C)CC)C(=O)N[C@@H](C(C)C)C(=O)NCC(=O)N[C@@H](CC(=O)O)C(=O)N1)C(=O)N[C@@H](CC(=O)O)C(=O)N[C@@H](CCCNC(=N)N)C(=O)N[C@@H](CO)C(=O)N[C@H](C(=O)N[C@@H](Cc1c[nH]c2ccccc12)C(N)=O)[C@@H](C)CC` [FITC-BID-DM], the values for the EC50 in experiment [1] (FA direct binding) and in experiment [2] were 159 ± 13 nM and 129 ± 3 nM, respectively.

By IC50 is commonly meant the concentration needed to halve the response being measured. A higher IC50 goes with weaker potency in that assay. For `CCCC[C@H](NC(=O)C(C)(C)NC(=O)[C@H](CC(=O)O)NC(=O)CNC(=O)[C@@H](NC(=O)C(C)(C)NC(=O)[C@H](C)NC(=O)[C@H](CC(C)C)NC(=O)[C@H](Cc1c[nH]cn1)NC(=O)[C@H](CCCNC(=N)N)NC(=O)[C@H](C)NC(=O)[C@@H](NC(=O)[C@H](CC(N)=O)NC(=O)[C@H](CCCNC(=N)N)NC(=O)[C@@H](NC(=O)[C@@H](NC(=O)[C@H](CC(=O)O)NC(=O)[C@H](CCC(=O)O)NC(C)=O)[C@@H](C)CC)[C@@H](C)CC)[C@@H](C)CC)C(C)C)C(=O)N[C@@H](CC(=O)O)C(=O)N[C@@H](CCCNC(=N)N)C(=O)N[C@@H](CO)C(=O)N[C@H](C(=O)N[C@@H](Cc1c[nH]c2ccccc12)C(N)=O)[C@@H](C)CC` [BID-AIB], the half-inhibitory concentration (IC50) in experiment [3] is 1140 ± 50 nM.

For `CC[C@H](C)[C@H](NC(=O)[C@H](CCCNC(=N)N)NC(=O)[C@H](CCCNC(=N)N)NC(=O)[C@H](CC(C)C)NC(=O)[C@H](CCC(N)=O)NC(=O)[C@H](C)NC(=O)[C@H](CS)NC(=O)[C@H](CCC(=O)O)NC(=O)[C@H](CC(=O)O)NC(=O)[C@H](CCCCN)NC(=O)[C@H](CC(C)C)NC(=O)[C@H](CC(=O)O)NC(=O)[C@H](C)NC(=O)[C@@H]1CCCN1C(=O)CCCCCNC(=S)Nc1ccc2c(c1)C(=O)OC21c2ccc(O)cc2Oc2cc(O)ccc21)C(=O)NCC(=O)N[C@@H](CC(=O)O)C(=O)N[C@@H](CCCCN)C(=O)N[C@H](C(=O)N[C@@H](CC(N)=O)C(=O)N[C@@H](CC(C)C)C(N)=O)C(C)C` [FITC-NOXA-B], the “Bcl-xL Kd” value in experiment [1] (FA direct binding, labelled unconstrained BH3 peptide, Kd model (Table S1), phosphate buffer for BODIPY-BAK and FITC-NOXA-B, Tris buffer for FITC-BID) is recorded as “no binding”. In experiment [2], this molecule had a Kd of 18.7 ± 0.9 nM.

In turn, “Ac-LWAAQRYGRELRRMSDEFEGSFDKL-NH2 [BAD, reference compound]” yielded an IC50 in experiment [3] of 140 ± 15 nM. For the same molecule, in experiment [4], the “Mcl-1/ FITC-NOXA-B IC50” value is reported as “no inhibition”.

In turn, `CC[C@H](C)[C@H](NC(C)=O)C(=O)N[C@@H](Cc1c[nH]c2ccccc12)C(=O)N[C@H](C(=O)N[C@@H](C)C(=O)N[C@@H](CCC(N)=O)C(=O)N[C@@H](CCC(=O)O)C(=O)N[C@@H](CC(C)C)C(=O)N[C@@H](CCCNC(=N)N)C(=O)N[C@@]1(C)CCCC=CCCC[C@@](C)(C(=O)N[C@@H](Cc2ccccc2)C(=O)N[C@@H](CC(N)=O)C(=O)N[C@@H](C)C(=O)N[C@@H](Cc2ccc(O)cc2)C(=O)N[C@@H](Cc2ccc(O)cc2)C(=O)N[C@@H](C)C(=O)N[C@@H](CCCNC(=N)N)C(=O)N[C@@H](CCCNC(=N)N)C(N)=O)NC(=O)[C@H](CC(=O)O)NC(=O)CNC(=O)[C@H]([C@@H](C)CC)NC1=O)[C@@H](C)CC` [BIM-DM] showed an IC50 in experiment [3] of 4000 ± 620 nM.

With `CCCC[C@H](NC(=O)[C@@H]1CCC/C=C\CCC[C@H](NC(=O)[C@H](C)NC(=O)[C@H](CC(C)C)NC(=O)[C@H](Cc2c[nH]cn2)NC(=O)[C@H](CCCNC(=N)N)NC(=O)[C@H](C)NC(=O)[C@@H](NC(=O)[C@H](CC(N)=O)NC(=O)[C@H](CCCNC(=N)N)NC(=O)[C@@H](NC(=O)[C@@H](NC(=O)[C@H](CC(=O)O)NC(=O)[C@H](CCC(=O)O)NC(=O)CCNC(=S)Nc2ccc3c(c2)C(=O)OC32c3ccc(O)cc3Oc3cc(O)ccc32)[C@@H](C)CC)[C@@H](C)CC)[C@@H](C)CC)C(=O)N[C@@H](C(C)C)C(=O)NCC(=O)N[C@@H](CC(=O)O)C(=O)N1)C(=O)N[C@@H](CC(=O)O)C(=O)N[C@@H](CCCNC(=N)N)C(=O)N[C@@H](CO)C(=O)N[C@H](C(=O)N[C@@H](Cc1c[nH]c2ccccc12)C(N)=O)[C@@H](C)CC` [FITC-BID-MM], the 50% effective concentration (EC50) in experiment [1] (FA direct binding) came to 186 ± 24 nM; in experiment [2] it was 153 ± 12 nM.
